Values quoted from earlier work in PMC6259197, “Alkaloids from Stems of Esenbeckia leiocarpa Engl. (Rutaceae) as Potential Treatment for Alzheimer Disease” (Molecules, 2010).

Legend:
[1] = test system: Leucoagaricus gongylophorus; parameters: method as in doi:10.1590/S0103-50532002000100010; conditions: alkaloids from Raulinoa echinata; symbiotic fungus of leaf-cutting ants
brine shrimp = conditions: alkaloids isolated from leaves of E. belizencis
Pectinophora gossypiella = test system: Pectinophora gossypiella; parameters: method as in PMID 1965201; conditions: activity of extract attributed to leiokinine A and B

| Compound | antifungal activity against Leucoagaricus gongylophorus [1] | mutagenic activity | brine shrimp toxicity LC50 (brine shrimp) | antifeedant activity against pink bollworm (Pectinophora gossypiella) |
| --- | --- | --- | --- | --- |
| COc1cc2nc3occc3c(OC)c2cc1OC [kokusaginine] | antifungal activity | weak mutagenic activity | 367 ppm | – |
| COc1c2ccoc2nc2c(OC)c3c(cc12)OCO3 [flindersiamine] | antifungal activity | – | > 1,000 ppm | – |
| COc1c2cc3c(cc2nc2occc12)OCO3 [maculine] | antifungal activity | – | – | – |
| CCCc1c(OC)c(=O)c2ccccc2n1C [leiokinine A] | – | – | – | weak antifeedant activity |
| COc1ccc2c(OC)c3ccoc3nc2c1OC [skimmianine] | antifungal activity | weak mutagenic activity | – | – |
| leiokinine B | – | – | – | weak antifeedant activity |
